Where a SMILES comes first, the peptide text is derived from it. Bridges are numbered along the chain shown (N, C = ends). [ ]: non-standard residue; d: D form. The star is where a group is joined. hPhe(3-Cl-4-CF3) = N[C@@H](CCc1ccc(C(F)(F)F)c(Cl)c1)C(=O)O; NPrPhe(4-CF3) = CCCN[C@@H](Cc1ccc(C(F)(F)F)cc1)C(=O)O; NMeGly(cPent) = CN[C@H](C(=O)O)C1CCCC1; NMeD = CN[C@@H](CC(=O)O)C(=O)O; NMeL = CN[C@@H](CC(C)C)C(=O)O; Morpholide = C1CN(*)CCO1; NMeA = CN[C@@H](C)C(=O)O; Aze = O=C(O)[C@@H]1CCN1; Ac4c = NC1(C(=O)O)CCC1; Sar = CNCC(=O)O
What was measured:
[1] = target: GDP-bound NRAS wild-type protein (Homo sapiens, UniProt P01111); assay: Binding to NRAS by surface plasmon resonance (SPR), Single Cycle Kinetics; conditions: for NRAS/KRAS (ratio of KD value for NRAS to KD value for KRAS) / NRAS/KRAS (ratio of KD value with respect to NRAS to KD value with respect to KRAS): GDP-bound NRAS wild-type vs GDP-bound KRAS wild-type
Chain of GDP-bound NRAS wild-type protein (P01111 whole entry): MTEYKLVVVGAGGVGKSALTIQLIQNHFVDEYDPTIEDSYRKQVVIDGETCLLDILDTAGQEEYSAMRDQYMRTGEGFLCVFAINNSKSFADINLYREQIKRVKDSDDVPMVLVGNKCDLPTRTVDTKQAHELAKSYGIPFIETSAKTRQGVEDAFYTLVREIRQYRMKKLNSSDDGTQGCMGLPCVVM

[2] = target: GDP-bound HRAS wild-type protein (Homo sapiens, UniProt P01112); assay: Binding to HRAS by surface plasmon resonance (SPR), Single Cycle Kinetics; conditions: for HRAS/KRAS (ratio of KD value for HRAS to KD value for KRAS) / HRAS/KRAS (ratio of KD value with respect to HRAS to KD value with respect to KRAS): GDP-bound HRAS wild-type vs GDP-bound KRAS wild-type
Chain of GDP-bound HRAS wild-type protein (P01112 whole entry): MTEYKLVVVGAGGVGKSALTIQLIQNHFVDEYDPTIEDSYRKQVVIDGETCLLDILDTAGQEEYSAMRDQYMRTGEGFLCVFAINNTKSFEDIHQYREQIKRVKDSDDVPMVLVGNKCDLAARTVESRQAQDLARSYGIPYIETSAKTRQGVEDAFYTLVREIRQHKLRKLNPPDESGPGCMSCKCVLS

CC[C@H](C)[C@@H]1NC(=O)[C@H](C2CCC2)N(C)C(=O)C[C@@H](C(=O)N(C)C)N(C)C(=O)[C@H](C2CCCC2)N(C)C(=O)C2(CC(C)(C)C2)NC(=O)[C@@H]2C[C@H](C)CN2C(=O)[C@H](CCc2ccc(C(F)(F)F)c(OC)c2)NC(=O)CN(C)C(=O)[C@H](Cc2ccc(C(F)(F)F)cc2)N2CC/C=C\C[C@@H](C2=O)N(C)C(=O)CN(C)C1=O [PP2011]
NRAS/KRAS (ratio of KD value for NRAS to KD value for KRAS) ([1]; KD ratio, SPR): A (a compound having 10 or more and less than 20 is denoted as A) | HRAS/KRAS (ratio of KD value for HRAS to KD value for KRAS) ([2]; KD ratio, SPR): A (a compound having 10 or more and less than 20 is denoted as A)

CCO[C@@H]1C[C@H]2C(=O)NC3(CCC3)C(=O)N(C)[C@@H](C3CCCC3)C(=O)N(CCC3CCCC3)[C@H](C(=O)N(C)C)CC(=O)N(C)[C@@H](CC)C(=O)N[C@@H]([C@@H](C)CC)C(=O)N(C)CC(=O)N(C)[C@H]3C/C=C\CCN(C3=O)[C@@H](Cc3ccc(C(F)(F)F)cc3)C(=O)N(C)CC(=O)N[C@@H](CCc3cc(F)c(C(F)(F)F)c(F)c3)C(=O)N2C1 [PP0982]
NRAS/KRAS (ratio of KD value with respect to NRAS to KD value with respect to KRAS) ([1]; KD ratio, SPR): AA (a compound having 20 or more is denoted as AA) | HRAS/KRAS (ratio of KD value with respect to HRAS to KD value with respect to KRAS) ([2]; KD ratio, SPR): A (a compound having 10 or more and less than 20 is denoted as A)

CCCN1C(=O)[C@@H]2CCN2C(=O)[C@H](C)N(C)C(=O)[C@H]([C@@H](C)CC)NC(=O)[C@H](CC(C)C)N(C)C(=O)C[C@@H](C(=O)N2CCOCC2)N(C)C(=O)[C@H](C2CCCC2)N(C)C(=O)C2(CCC2)NC(=O)[C@@H]2CCCN2C(=O)[C@H](CCc2ccc(C(F)(F)F)c(Cl)c2)NC(=O)CN(C)C(=O)[C@@H]1Cc1ccc(C(F)(F)F)cc1 [PP0198] ([NMeL]I[NMeA][Aze][NPrPhe(4-CF3)][Sar][hPhe(3-Cl-4-CF3)]P[Ac4c][NMeGly(cPent)][NMeD]-Morpholide; lactam N-11)
NRAS/KRAS (ratio of KD for GDP-bound NRAS wild-type to KD for KRAS) ([1]; KD ratio NRAS/KRAS, SPR): C (A compound having a KD ratio of 0.1 or more and less than 3 is denoted as C) | HRAS/KRAS (ratio of KD for GDP-bound HRAS wild-type to KD for KRAS) ([2]; KD ratio HRAS/KRAS, SPR): B (a compound having 3 or more and less than 10 is denoted as B)

CCC[C@H]1C(=O)N[C@@H]([C@@H](C)CC)C(=O)N(C2CC2)CC(=O)N(C)[C@H]2C/C=C\CCN(C2=O)[C@@H](Cc2ccc(C)cc2)C(=O)N(C)CC(=O)N[C@@H](CCc2ccc(Cl)c(Cl)c2)C(=O)N2C[C@H](OC3CCC3)C[C@H]2C(=O)NC2(CC(C)(C)C2)C(=O)N(C)[C@@H](C2CCCC2)C(=O)N(C)[C@H](C(=O)N(C)C)CC(=O)N1C [PP2616]
NRAS/KRAS (ratio of KD value with respect to GDP-bound NRAS wild-type protein to KD value with respect to KRAS) ([1]; KD ratio NRAS/KRAS, class symbols): A (a compound having 10 or more and less than 20 is denoted as A) | HRAS/KRAS (ratio of KD value with respect to GDP-bound HRAS wild-type protein to KD value with respect to KRAS) ([2]; KD ratio HRAS/KRAS, class symbols): A (a compound having 10 or more and less than 20 is denoted as A)

CCC[C@H]1C(=O)N[C@@H](C2CCCCC2)C(=O)N(C)CC(=O)N(C)[C@H]2C/C=C\CCN(C2=O)[C@@H](Cc2ccc(C)cc2)C(=O)N(C)CC(=O)N[C@@H](CCc2ccc(C(F)(F)F)c(Cl)c2)C(=O)N2C[C@H](OCC)C[C@H]2C(=O)NC2(CC(C)(C)C2)C(=O)N(C)[C@@H](CC(C)(C)C)C(=O)N(C)[C@H](C(=O)N(C)C)CC(=O)N1C [PP3018]
NRAS/KRAS (ratio of KD value with respect to GDP-bound NRAS wild-type protein to KD value with respect to KRAS) ([1]; KD ratio NRAS/KRAS, SPR, GDP-bound wild-type proteins): A (a compound having 10 or more and less than 20 is denoted as A) | HRAS/KRAS (ratio of KD value with respect to GDP-bound HRAS wild-type protein to KD value with respect to KRAS) ([2]; KD ratio HRAS/KRAS, SPR, GDP-bound wild-type proteins): B (a compound having 3 or more and less than 10 is denoted as B)

CCO[C@@H]1C[C@H]2C(=O)NC3(CCC3)C(=O)N(C)[C@@H](C3CCCC3)C(=O)N(C)[C@H](C(=O)N(C)CC)CC(=O)N(C)[C@@H](CC(F)(F)F)C(=O)N[C@@H]([C@@H](C)CC)C(=O)N(C)CC(=O)N(C)[C@H]3C/C=C\CCN(C3=O)[C@@H](Cc3ccc(C(F)(F)F)cc3)C(=O)N(C)CC(=O)N[C@@H](CCc3cc(F)c(C(F)(F)F)c(F)c3)C(=O)N2C1 [PP1701]
NRAS/KRAS (ratio of KD value for NRAS to KD value for KRAS) ([1]; KD ratio, SPR): A (a compound having 10 or more and less than 20 is denoted as A) | HRAS/KRAS (ratio of KD value for HRAS to KD value for KRAS) ([2]; KD ratio, SPR): A (a compound having 10 or more and less than 20 is denoted as A)

CCO[C@@H]1C[C@H]2C(=O)NC3(CCC3)C(=O)N(C)[C@@H](C3CCCC3)C(=O)N(C)[C@H](C(=O)N(C)CC)CC(=O)N(C)[C@H]3CCCCCCc4ccc(cc4)C[C@@H](C(=O)N(C)CC(=O)N[C@@H](CCc4ccc(C(F)(F)F)c(OC)c4)C(=O)N2C1)N1CC/C=C\C[C@@H](C1=O)N(C)C(=O)CN(C)C(=O)[C@H]([C@@H](C)CC)NC3=O [PP2263]
NRAS/KRAS (ratio of KD value with respect to NRAS to KD value with respect to KRAS) ([1]; SPR): A (a compound having 10 or more and less than 20 is denoted as A) | HRAS/KRAS (ratio of KD value with respect to HRAS to KD value with respect to KRAS) ([2]; SPR): A (a compound having 10 or more and less than 20 is denoted as A)
